One assay relates to PKC isozymes. The following applies: cited from earlier work.
Another assay concerns the target protein kinase C eta (Homo sapiens, UniProt P24723). In words: PKC Enzyme Assay, eta isozyme. To be noted: 30 μM ATP, 30° C., 10 minutes. The format is biochemical. The procedure:
(§1) PKC enzymes=alpha, beta 1, beta II, gamma, delta, epsilon, eta and zeta.
(§2) Assay components in a total volume of 250 μL are the following:
(§3) Vesicles consisting of 120 μg/mL phosphatidylserine (Avanti Polar Lipids)and sufficient diacylglycerol (Avanti Polar Lipids) to activate the enzyme to maximum activity in 20 mM HEPES buffer (Sigma, St. Louis, Mo.), pH 7.5, 940 μM calcium chloride (Sigma, St. Louis, Mo.) for assaying the alpha, beta I, beta II and gamma enzyme only, 1 mM EGTA for all the enzymes, 10 mM magnesium chloride (Sigma, St. Louis, Mo.) and 30 μM (gamma-32P) ATP (DuPont). For all the enzymes either histone type HL (Worthington) or myelin basic protein is used as substrate. The assay is started by addition of protein kinase C enzyme incubated at 30° C. for 10 minutes and stopped by adding 0.5 mL of cold trichloroacetic acid (Amresco) followed by 100 μL of 1 mg/mL bovine serum albumin (Sigma, St. Louis, Mo.). The precipitate is collected by vacuum filtration on glass fiber filters employing a TOMTEC™ filtration system and quantified by counting in a beta scintillation counter.

The next assay deals with protein kinase C gamma (Homo sapiens, UniProt P05129). As to the kind of experiment: PKC Enzyme Assay, gamma isozyme. The following applies: 30 μM ATP, 30° C., 10 minutes. Format: biochemical. The procedure:
as §1, §2, §3

Another assay has as its target protein kinase C beta-2 (Homo sapiens, UniProt P05771). As to the kind of experiment: PKC Enzyme Assay, beta-2 isozyme. To be noted: PKC beta-2; 30 μM ATP, 30° C., 10 minutes; read-out: IC50 β2. The format is biochemical. The procedure:
as §1, §2, §3

For a further assay, the target named is protein kinase C delta (Homo sapiens, UniProt Q05655). As to the kind of experiment: PKC Enzyme Assay, delta isozyme. The format is biochemical. To be noted: 30 μM ATP, 30° C., 10 minutes.
Another assay has as its target protein kinase C alpha (Homo sapiens, UniProt P17252). As to the kind of experiment: PKC Enzyme Assay, alpha isozyme. To be noted: 30 μM ATP, 30° C., 10 minutes. The format is biochemical. The procedure: as §1, §2, §3
A further assay concerns the target T1, protein kinase C epsilon (Homo sapiens, UniProt Q02156).
T1 sequence (Q02156 1-737): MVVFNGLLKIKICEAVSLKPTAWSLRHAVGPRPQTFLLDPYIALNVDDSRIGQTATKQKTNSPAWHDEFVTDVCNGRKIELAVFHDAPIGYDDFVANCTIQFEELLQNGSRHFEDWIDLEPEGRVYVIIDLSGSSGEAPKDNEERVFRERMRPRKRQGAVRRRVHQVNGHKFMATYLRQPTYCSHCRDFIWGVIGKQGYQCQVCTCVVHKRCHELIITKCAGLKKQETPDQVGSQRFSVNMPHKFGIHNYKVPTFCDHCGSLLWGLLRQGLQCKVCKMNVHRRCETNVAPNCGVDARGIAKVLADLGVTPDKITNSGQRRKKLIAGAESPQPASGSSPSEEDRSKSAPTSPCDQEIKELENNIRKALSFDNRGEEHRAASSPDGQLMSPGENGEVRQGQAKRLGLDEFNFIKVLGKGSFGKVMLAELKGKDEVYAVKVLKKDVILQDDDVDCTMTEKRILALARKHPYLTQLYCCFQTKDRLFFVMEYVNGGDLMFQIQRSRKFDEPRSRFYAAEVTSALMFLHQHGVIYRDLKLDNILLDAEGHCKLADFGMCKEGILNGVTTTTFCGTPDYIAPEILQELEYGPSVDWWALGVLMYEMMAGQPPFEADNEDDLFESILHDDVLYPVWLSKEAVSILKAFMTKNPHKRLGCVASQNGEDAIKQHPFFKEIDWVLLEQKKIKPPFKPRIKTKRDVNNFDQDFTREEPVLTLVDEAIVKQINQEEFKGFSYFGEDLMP
As to the kind of experiment: PKC Enzyme Assay, epsilon isozyme. The format is biochemical. The following applies: 30 μM ATP, 30° C., 10 minutes. The procedure:
as §1, §2, §3

A further assay has as its target protein kinase C beta-1 (Homo sapiens, UniProt P05771). In words: PKC Enzyme Assay, beta-1 isozyme. To be noted: PKC beta-1; 30 μM ATP, 30° C., 10 minutes; read-out: IC50 β1. Format: biochemical. The procedure:
as §1, §2, §3

The target in the next assay is T2, protein kinase C zeta (Homo sapiens, UniProt Q05513).
T2 sequence (Q05513 1-592): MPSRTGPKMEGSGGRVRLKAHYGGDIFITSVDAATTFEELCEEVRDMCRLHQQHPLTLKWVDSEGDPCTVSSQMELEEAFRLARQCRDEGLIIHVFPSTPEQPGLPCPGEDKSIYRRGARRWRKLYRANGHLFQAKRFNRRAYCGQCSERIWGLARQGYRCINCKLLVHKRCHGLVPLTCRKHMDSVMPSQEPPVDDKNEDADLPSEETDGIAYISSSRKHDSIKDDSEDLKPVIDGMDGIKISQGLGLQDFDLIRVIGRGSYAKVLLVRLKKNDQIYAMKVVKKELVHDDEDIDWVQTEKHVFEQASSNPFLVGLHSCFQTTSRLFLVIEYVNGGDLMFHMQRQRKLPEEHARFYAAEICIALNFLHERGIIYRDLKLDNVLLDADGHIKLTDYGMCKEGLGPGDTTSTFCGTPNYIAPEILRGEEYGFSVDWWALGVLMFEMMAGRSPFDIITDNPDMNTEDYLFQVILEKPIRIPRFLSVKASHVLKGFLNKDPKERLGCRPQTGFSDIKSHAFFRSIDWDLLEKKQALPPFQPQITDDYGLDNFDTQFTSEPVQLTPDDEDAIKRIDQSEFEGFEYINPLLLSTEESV
As to the kind of experiment: PKC Enzyme Assay, zeta isozyme. The format is biochemical. The following applies: 30 μM ATP, 30° C., 10 minutes. The procedure:
as §1, §2, §3

Here are results for 4 compounds from patent US5481003A, “Protein kinase C inhibitors” (Eli Lilly and Company, priority 1994, dated 1996).

SMILES strings stand for the structures. Entries after “also recorded” stand apart in the source; their conditions may differ. Like-named read-outs stand apart in the source and are kept apart here.

As usually defined, the IC50 is the concentration needed to halve the response being measured.

Sequence of protein kinase C eta (P24723 whole entry): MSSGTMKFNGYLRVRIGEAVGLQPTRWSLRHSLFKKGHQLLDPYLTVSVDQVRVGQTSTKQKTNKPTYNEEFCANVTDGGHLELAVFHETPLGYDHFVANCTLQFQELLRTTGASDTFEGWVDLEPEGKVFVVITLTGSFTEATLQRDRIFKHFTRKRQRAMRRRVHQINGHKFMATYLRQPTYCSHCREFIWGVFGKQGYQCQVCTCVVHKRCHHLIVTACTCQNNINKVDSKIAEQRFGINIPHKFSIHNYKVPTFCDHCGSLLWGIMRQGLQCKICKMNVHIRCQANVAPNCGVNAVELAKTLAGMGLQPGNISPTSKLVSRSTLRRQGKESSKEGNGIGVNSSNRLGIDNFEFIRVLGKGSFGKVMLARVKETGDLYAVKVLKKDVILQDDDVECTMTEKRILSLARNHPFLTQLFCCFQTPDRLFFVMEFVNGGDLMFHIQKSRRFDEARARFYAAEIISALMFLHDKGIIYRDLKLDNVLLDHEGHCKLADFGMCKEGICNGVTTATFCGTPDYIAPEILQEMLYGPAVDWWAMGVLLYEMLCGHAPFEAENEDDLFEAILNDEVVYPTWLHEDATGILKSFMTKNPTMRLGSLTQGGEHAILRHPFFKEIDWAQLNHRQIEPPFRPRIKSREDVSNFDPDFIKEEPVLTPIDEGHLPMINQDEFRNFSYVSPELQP
Sequence of protein kinase C beta-1 (P05771 whole entry): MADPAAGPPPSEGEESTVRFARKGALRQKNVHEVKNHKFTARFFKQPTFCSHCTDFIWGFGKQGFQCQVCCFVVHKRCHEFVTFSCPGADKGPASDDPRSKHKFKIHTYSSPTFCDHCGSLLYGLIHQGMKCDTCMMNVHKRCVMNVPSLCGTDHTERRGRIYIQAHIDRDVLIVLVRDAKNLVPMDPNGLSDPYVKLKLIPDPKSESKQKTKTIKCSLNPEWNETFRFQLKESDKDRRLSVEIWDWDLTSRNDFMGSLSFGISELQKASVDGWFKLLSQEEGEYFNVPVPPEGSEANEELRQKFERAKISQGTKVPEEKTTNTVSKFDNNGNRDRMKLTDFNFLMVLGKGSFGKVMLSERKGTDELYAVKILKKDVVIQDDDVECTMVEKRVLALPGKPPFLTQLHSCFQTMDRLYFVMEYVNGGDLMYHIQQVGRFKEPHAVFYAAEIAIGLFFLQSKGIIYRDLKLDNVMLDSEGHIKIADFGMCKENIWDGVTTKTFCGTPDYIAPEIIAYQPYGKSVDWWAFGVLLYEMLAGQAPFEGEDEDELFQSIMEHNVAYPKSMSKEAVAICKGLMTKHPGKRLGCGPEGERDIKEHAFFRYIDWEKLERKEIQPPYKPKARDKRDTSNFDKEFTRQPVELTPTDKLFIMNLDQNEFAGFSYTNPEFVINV
Sequence of protein kinase C beta-2 (P05771 1-673 isoform P05771-2): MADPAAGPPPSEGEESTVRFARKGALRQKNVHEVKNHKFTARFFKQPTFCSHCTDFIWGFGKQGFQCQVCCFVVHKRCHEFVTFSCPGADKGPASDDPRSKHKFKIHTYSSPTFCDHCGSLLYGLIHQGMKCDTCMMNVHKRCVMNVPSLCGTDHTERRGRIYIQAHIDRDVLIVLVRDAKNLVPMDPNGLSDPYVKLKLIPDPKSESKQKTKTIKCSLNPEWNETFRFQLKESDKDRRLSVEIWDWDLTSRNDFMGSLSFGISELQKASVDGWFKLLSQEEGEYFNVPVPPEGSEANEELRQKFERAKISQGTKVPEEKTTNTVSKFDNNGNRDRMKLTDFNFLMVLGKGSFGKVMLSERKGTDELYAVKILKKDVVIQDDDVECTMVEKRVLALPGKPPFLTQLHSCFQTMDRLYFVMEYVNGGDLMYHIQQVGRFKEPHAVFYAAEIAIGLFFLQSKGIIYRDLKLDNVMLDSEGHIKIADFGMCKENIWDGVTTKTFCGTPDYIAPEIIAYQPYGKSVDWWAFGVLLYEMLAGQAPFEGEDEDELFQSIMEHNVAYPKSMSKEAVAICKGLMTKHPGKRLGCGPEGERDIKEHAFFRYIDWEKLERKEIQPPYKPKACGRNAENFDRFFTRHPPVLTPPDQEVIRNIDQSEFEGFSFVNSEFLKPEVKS
Sequence of protein kinase C delta (Q05655 whole entry): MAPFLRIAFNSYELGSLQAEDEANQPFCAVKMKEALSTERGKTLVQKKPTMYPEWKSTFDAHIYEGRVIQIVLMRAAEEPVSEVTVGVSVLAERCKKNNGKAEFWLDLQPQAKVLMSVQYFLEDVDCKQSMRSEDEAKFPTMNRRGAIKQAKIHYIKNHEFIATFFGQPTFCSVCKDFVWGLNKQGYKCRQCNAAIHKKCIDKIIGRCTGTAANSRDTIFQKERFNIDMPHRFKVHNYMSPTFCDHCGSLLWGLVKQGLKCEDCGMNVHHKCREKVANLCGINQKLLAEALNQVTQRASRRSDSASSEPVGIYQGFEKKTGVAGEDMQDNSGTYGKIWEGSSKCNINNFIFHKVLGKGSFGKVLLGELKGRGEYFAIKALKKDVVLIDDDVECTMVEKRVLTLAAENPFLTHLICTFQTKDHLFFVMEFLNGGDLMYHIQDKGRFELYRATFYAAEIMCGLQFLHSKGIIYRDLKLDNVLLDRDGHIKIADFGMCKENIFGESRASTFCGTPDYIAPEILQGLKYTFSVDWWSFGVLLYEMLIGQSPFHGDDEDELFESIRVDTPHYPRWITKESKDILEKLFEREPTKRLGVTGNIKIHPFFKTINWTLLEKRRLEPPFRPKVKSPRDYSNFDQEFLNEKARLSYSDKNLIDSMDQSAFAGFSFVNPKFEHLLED

Regarding `CN(C)CCCn1cc(C2=C(c3c[nH]c4ccccc34)C(=O)NC2=O)c2ccccc21` [3-[1-(3-dimethylaminopropyl)-indol-3-yl]-4-(1H-indol-3-yl)-1H-pyrrole-2,5-dione], the isozyme selectivity entry was “slight selectivity for isozymes, alpha and beta versus delta, epsilon, and zeta; also recorded: no differences in the selectivity between alpha and beta-1 isozymes” in the assay with PKC isozymes (Martiny-Baron, et al., J. Biol. Chem. 268:9194-9197 (1993)); “slight selectivity for the calcium dependent isozymes; also recorded: no isozyme selectivity between alpha, beta-1, beta-2, and gamma” in the assay on PKC isozymes (Toullec et al., J. Biol. Chem. 266:15771-15781 (1991)).

As for `CC(C)(C)OC(=O)NCC(=O)n1cc(C2=C(c3cn(CCCN=[N+]=[N-])c4ccccc34)C(=O)NC2=O)c2ccccc21` [Example 1, 3-[1-(3-azidopropyl)-3-indolyl]-4-[(1-N-^t BOC )-glycine-3indolyl]-1H-pyrrol-2,5-dione], the IC50 on protein kinase C eta turned out to be 2.6 µM.

Take `CN(C)CCCn1cc(C2=C(c3cn(C(=O)CNC(=O)OC(C)(C)C)c4ccccc34)C(=O)NC2=O)c2ccccc21` [Example 2, 3-[1-(3-N,N'-dimethylaminopropyl)-3-indolyl]-4-[(1-N-^t BOC)-glycine-3-indolyl]-1H-pyrrol-2,5-dione]: the concentration for half-maximal inhibition (IC50) at protein kinase C gamma is 2.6 µM; on protein kinase C beta-2, 0.04 µM; against protein kinase C delta, 2.9 µM; against protein kinase C alpha it was 2.3 µM; against protein kinase C epsilon, 6.1 µM; on protein kinase C beta-1 it was 0.15 µM. The IC50 came to 0.37 µM at protein kinase C eta and 45 µM at protein kinase C zeta.

Regarding `CC(C)(C)OC(=O)N[C@@H](Cc1ccccc1)C(=O)n1cc(C2=C(c3cn(C(=O)[C@H](Cc4ccccc4)NC(=O)OC(C)(C)C)c4ccccc34)C(=O)NC2=O)c2ccccc21` [Example 3, 3,4-Bis[(1-N-^t BOC)-phenylalanine-3-indolyl]-1H-Pyrrol-2,5-dione], at protein kinase C beta-1, the IC50 was determined as 1 µM.
